Source: ChEMBL document CHEMBL1208702, “Use of 2-[(18)F]fluoroethylazide for the Staudinger ligation - Preparation and characterisation of GABA(A) receptor binding 4-quinolones” (Bioorg Med Chem Lett, 2010)

Assay: Displacement of [3H]Ro151788 from GABA-A receptor in Wistar rat cerebellar membrane after 1 hr by liquid scintillation counting
Format: cell membranes, Cerebellum

| Ki [nM] | Compound |
| --- | --- |
| 0.7 | O=C(NCCF)c1c[nH]c2ccc(Cc3ccccc3)cc2c1=O |
| 0.13 | O=C(NCCCF)c1c[nH]c2ccc(Cc3ccccc3)cc2c1=O |
